Results as given in ChEMBL document CHEMBL1136587, “Optimisation of aryl substitution leading to potent methionyl tRNA synthetase inhibitors with excellent gram-positive antibacterial activity” (Bioorg Med Chem Lett, 2003).
Converted amounts (≈) assume the structure as drawn.

Tests used:
[1] = test system: Staphylococcus aureus; assay: In vitro Antibacterial activity of compound against Staphylococcus aureus Oxford; assay type: functional
[2] = test system: Enterococcus faecalis; assay: In vitro Antibacterial activity of compound against Enterococcus faecalis 1; assay type: functional
[3] = biological target: Methionine--tRNA ligase (Enterococcus faecalis (strain ATCC 700802 / V583)) (UniProt Q837B3); assay: In vitro Antibacterial activity of compound against Enterococcus faecalis 7; assay type: functional
Sequence of Methionine--tRNA ligase (Enterococcus faecalis (strain ATCC 700802 / V583)) (Q837B3 whole entry): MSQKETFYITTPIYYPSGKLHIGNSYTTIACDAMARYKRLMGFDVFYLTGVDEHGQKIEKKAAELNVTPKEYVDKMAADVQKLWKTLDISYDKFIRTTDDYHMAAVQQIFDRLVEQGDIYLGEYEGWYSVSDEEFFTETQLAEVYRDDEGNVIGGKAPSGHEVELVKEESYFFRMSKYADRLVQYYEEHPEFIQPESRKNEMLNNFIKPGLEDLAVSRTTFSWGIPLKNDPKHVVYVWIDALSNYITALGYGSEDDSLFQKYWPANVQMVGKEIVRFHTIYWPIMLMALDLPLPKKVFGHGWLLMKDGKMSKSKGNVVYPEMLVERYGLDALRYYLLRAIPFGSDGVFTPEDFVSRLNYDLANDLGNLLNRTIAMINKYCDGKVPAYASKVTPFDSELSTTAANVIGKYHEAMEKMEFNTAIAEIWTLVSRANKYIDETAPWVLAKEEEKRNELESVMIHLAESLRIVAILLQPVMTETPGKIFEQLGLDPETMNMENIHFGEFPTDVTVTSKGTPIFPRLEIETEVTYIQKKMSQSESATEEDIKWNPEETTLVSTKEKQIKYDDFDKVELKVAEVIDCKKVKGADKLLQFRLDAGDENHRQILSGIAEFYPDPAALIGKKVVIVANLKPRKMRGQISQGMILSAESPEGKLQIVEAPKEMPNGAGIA

[4] = test system: Staphylococcus epidermidis; assay: In vitro Antibacterial activity of compound against Staphylococcus epidermidis
[5] = test system: Staphylococcus aureus; assay: In vitro Antibacterial activity of compound against Staphylococcus aureus
[6] = test system: Enterococcus faecium; assay: In vitro Antibacterial activity of compound against Enterococcus faecium
[7] = biological target: Methionine--tRNA ligase (Enterococcus faecalis (strain ATCC 700802 / V583)) (UniProt Q837B3); assay: In vitro Antibacterial activity of compound against Enterococcus faecalis; assay type: functional

SMILES | MIC [1] | MIC [2] | other results
CCOc1c(Br)cc(C#N)cc1CNCCCNc1cc(O)c2ccccc2n1 | 4 µg/mL (≈ 8.78 µM) | 1 µg/mL (≈ 2.2 µM) | 
CCOc1c(I)cc(Br)cc1CNCCCNc1cc(O)c2ccccc2n1 | < 0.06 µg/mL | < 0.06 µg/mL | 
C=CCc1cc(I)cc(CNCCCNc2cc(O)c3ccccc3n2)c1OCC | 0.13 µg/mL (≈ 0.251 µM) | 1 µg/mL (≈ 1.93 µM) | 
CNc1c(Br)cc(Br)cc1CNCCCNc1cc(O)c2ccccc2n1 | 0.5 µg/mL (≈ 1.01 µM) | 0.13 µg/mL (≈ 0.263 µM) | 
O=c1cc(NCCCNC2CCOc3c(Cl)cc(Cl)cc32)[nH]c2ccccc12 (centres undefined) | 0.13 µg/mL (≈ 0.311 µM) | < 0.06 µg/mL | 
Oc1cc(NCCCNC2CCNc3c(Cl)cc(Br)cc32)nc2ccccc12 (centres undefined) | < 0.06 µg/mL | < 0.06 µg/mL | 
CCOc1c(CNCCCNc2cc(O)c3ccccc3n2)cc(I)cc1COC | 16 µg/mL (≈ 30.7 µM) | 8 µg/mL (≈ 15.3 µM) | 
Oc1cc(NCCCNCc2cc(Br)cc(Br)c2OCC(F)(F)F)nc2ccccc12 | 0.25 µg/mL (≈ 0.444 µM) | < 0.06 µg/mL | 
CC(C)Oc1c(Cl)cc(Cl)cc1CNCCCNc1cc(O)c2ccccc2n1 | 2 µg/mL (≈ 4.6 µM) |  | MIC [3]: 0.5 µg/mL (≈ 1.15 µM)
Oc1cc(NCCCNC2CCc3c(Cl)cc(Cl)cc32)nc2ccccc12 (centres undefined) | 0.25 µg/mL (≈ 0.621 µM) | < 0.06 µg/mL | 
Oc1cc(NCCCNCc2cc(I)cc(I)c2)nc2ccccc12 | < 0.06 µg/mL | < 0.06 µg/mL | 
CCOc1c(Br)cc(C)cc1CNCCCNc1cc(O)c2ccccc2n1 | 2 µg/mL (≈ 4.5 µM) | 0.25 µg/mL (≈ 0.563 µM) | 
CCOc1c(Br)cc(S(C)(=O)=O)cc1CNCCCNc1cc(O)c2ccccc2n1 | > 64 µg/mL | 8 µg/mL (≈ 15.7 µM) | 
CCOc1c(C#N)cc(Br)cc1CNCCCNc1cc(O)c2ccccc2n1 | 0.5 µg/mL (≈ 1.1 µM) | 0.25 µg/mL (≈ 0.549 µM) | 
Oc1cc(NCCCNCc2cc(Br)cc(I)c2)nc2ccccc12 | < 0.06 µg/mL | < 0.06 µg/mL | 
CCOc1c(Cl)cc(Cl)cc1CNCCCNc1cc(O)c2ccccc2n1 | 0.13 µg/mL (≈ 0.309 µM) | < 0.06 µg/mL | MIC90 [4]: 2 µg/mL (≈ 4.76 µM); MIC90 [5]: 2 µg/mL (≈ 4.76 µM); MIC90 [6]: < 0.016 µg/mL; MIC90 [7]: 0.06 µg/mL (≈ 0.143 µM)
CCOc1c(I)cc(CO)cc1CNCCCNc1cc(O)c2ccccc2n1 | > 64 µg/mL | > 64 µg/mL | 
CCOc1c(Br)cc(SC)cc1CNCCCNc1cc(O)c2ccccc2n1 | < 0.06 µg/mL | < 0.06 µg/mL | MIC90 [4]: 0.25 µg/mL (≈ 0.525 µM); MIC90 [5]: 0.25 µg/mL (≈ 0.525 µM); MIC90 [6]: 0.5 µg/mL (≈ 1.05 µM); MIC90 [7]: 0.5 µg/mL (≈ 1.05 µM)
Cc1cc(Br)cc2c1NCCC2NCCCNc1cc(O)c2ccccc2n1 (centres undefined) | 0.5 µg/mL (≈ 1.13 µM) | < 0.06 µg/mL | 
CCOc1c(C)cc(C#N)cc1CNCCCNc1cc(O)c2ccccc2n1 | 8 µg/mL (≈ 20.5 µM) | 4 µg/mL (≈ 10.2 µM) | 
Oc1cc(NCCCNC2CCNc3c(Cl)cc(Cl)cc32)nc2ccccc12 (centres undefined) | 0.13 µg/mL (≈ 0.311 µM) | < 0.06 µg/mL | 
CCOc1c(I)cc(C)cc1CNCCCNc1cc(O)c2ccccc2n1 | 2 µg/mL (≈ 4.07 µM) | 0.5 µg/mL (≈ 1.02 µM) | 

SMILES | MIC [1] | MIC [2] | other results
CCOc1c(Cl)cc(OC)cc1CNCCCNc1cc(O)c2ccccc2n1 | 0.25 µg/mL (≈ 0.601 µM) | < 0.06 µg/mL | 
CCOc1c(Br)cc(I)cc1CNCCCNc1cc(O)c2ccccc2n1 | < 0.06 µg/mL | < 0.06 µg/mL | 
Oc1cc(NCCCNCc2cc(Br)cc(Br)c2)nc2ccccc12 | 0.25 µg/mL (≈ 0.537 µM) | < 0.06 µg/mL | 
CCOc1c(CO)cc(I)cc1CNCCCNc1cc(O)c2ccccc2n1 | 32 µg/mL (≈ 63.1 µM) | 32 µg/mL (≈ 63.1 µM) | 
Oc1cc(NCCCNC2CCNc3c(Br)cc(Br)cc32)nc2ccccc12 (centres undefined) | < 0.06 µg/mL | < 0.06 µg/mL | MIC90 [4]: 0.5 µg/mL (≈ 0.988 µM); MIC90 [5]: 0.5 µg/mL (≈ 0.988 µM); MIC90 [6]: < 0.016 µg/mL; MIC90 [7]: 0.03 µg/mL (≈ 0.0593 µM)
Nc1c(Br)cc(Br)cc1CNCCCNc1cc(O)c2ccccc2n1 | 0.13 µg/mL (≈ 0.271 µM) | < 0.06 µg/mL | 
CCOc1c(Br)cc([S+](C)[O-])cc1CNCCCNc1cc(O)c2ccccc2n1 (centres undefined) | 4 µg/mL (≈ 8.12 µM) | 2 µg/mL (≈ 4.06 µM) | 
Oc1cc(NCCCNC2CCNc3c(Br)cc(Cl)cc32)nc2ccccc12 (centres undefined) | < 0.06 µg/mL | < 0.06 µg/mL | MIC90 [4]: 1 µg/mL (≈ 2.17 µM); MIC90 [5]: 1 µg/mL (≈ 2.17 µM); MIC90 [6]: < 0.016 µg/mL; MIC90 [7]: 0.06 µg/mL (≈ 0.13 µM)
CCc1cc(Br)cc2c1NCCC2NCCCNc1cc(O)c2ccccc2n1 (centres undefined) | 0.25 µg/mL (≈ 0.549 µM) | < 0.06 µg/mL | 
CCOc1c(Br)cc(OC)cc1CNCCCNc1cc(O)c2ccccc2n1 | 0.13 µg/mL (≈ 0.282 µM) | < 0.06 µg/mL | MIC90 [4]: 2 µg/mL (≈ 4.34 µM); MIC90 [5]: 2 µg/mL (≈ 4.34 µM); MIC90 [6]: 0.03 µg/mL (≈ 0.0652 µM); MIC90 [7]: 0.06 µg/mL (≈ 0.13 µM)
CCOc1cc(Br)c(OCC)c(CNCCCNc2cc(O)c3ccccc3n2)c1 | 8 µg/mL (≈ 16.9 µM) | 4 µg/mL (≈ 8.43 µM) | 
CCOc1c(C)cc(C(F)(F)F)cc1CNCCCNc1cc(=O)c2ccccc2[nH]1 | 0.5 µg/mL (≈ 1.15 µM) | 0.25 µg/mL (≈ 0.577 µM) | 
Oc1cc(NCCCNC2CCCc3c(Cl)cc(Cl)cc32)nc2ccccc12 (centres undefined) | 0.25 µg/mL (≈ 0.6 µM) | < 0.06 µg/mL | 
O=c1cc(NCCCNC2CCOc3c(I)cc(Cl)cc32)[nH]c2ccccc12 (centres undefined) | < 0.06 µg/mL | < 0.06 µg/mL | MIC90 [4]: 0.25 µg/mL (≈ 0.49 µM); MIC90 [5]: 0.25 µg/mL (≈ 0.49 µM)
Oc1cc(NCCCNC2CCOc3c(Cl)cc(I)cc32)nc2ccccc12 (centres undefined) | 0.13 µg/mL (≈ 0.255 µM) | < 0.06 µg/mL | 
CCOc1c(Br)cc(Br)cc1CNCCCNc1cc(O)c2ccccc2n1 | < 0.06 µg/mL | < 0.06 µg/mL | 
Oc1cc(NCCCNCc2cc(Cl)ccc2Cl)nc2ccccc12 | 4 µg/mL (≈ 10.6 µM) | 16 µg/mL (≈ 42.5 µM) | 
CCOc1c(I)cc(COC)cc1CNCCCNc1cc(O)c2ccccc2n1 | 8 µg/mL (≈ 15.3 µM) | 2 µg/mL (≈ 3.84 µM) | 
CCOc1c(I)cc(OC)cc1CNCCCNc1cc(O)c2ccccc2n1 | 0.5 µg/mL (≈ 0.985 µM) | 0.13 µg/mL (≈ 0.256 µM) | 
O=c1cc(NCCCNC2CCOc3c(Br)cc(Br)cc32)[nH]c2ccccc12 (centres undefined) | < 0.06 µg/mL | < 0.06 µg/mL | 
CCNc1c(Br)cc(Br)cc1CNCCCNc1cc(O)c2ccccc2n1 | 1 µg/mL (≈ 1.97 µM) | < 0.06 µg/mL | 
C=CCOc1c(Cl)cc(Cl)cc1CNCCCNc1cc(O)c2ccccc2n1 | 0.5 µg/mL (≈ 1.16 µM) | < 0.06 µg/mL | 

SMILES | MIC [1] | MIC [2] | other results
CCOc1c(C)cc(I)cc1CNCCCNc1cc(O)c2ccccc2n1 | < 0.06 µg/mL | < 0.06 µg/mL | 
O=c1cc(NCCCNCc2ccc(Cl)c(Cl)c2)[nH]c2ccccc12 | 4 µg/mL (≈ 10.6 µM) | 2 µg/mL (≈ 5.32 µM) | 
CCOC(=O)c1cc(I)cc(CNCCCNc2cc(O)c3ccccc3n2)c1OCC | 32 µg/mL (≈ 58.2 µM) | 8 µg/mL (≈ 14.6 µM) | 
CCOc1c(CNCCCNc2cc(O)c3ccccc3n2)cc(I)cc1OC | 2 µg/mL (≈ 3.94 µM) | < 0.06 µg/mL | 
CCOc1c(C)cc(SC)cc1CNCCCNc1cc(O)c2ccccc2n1 | < 0.06 µg/mL | < 0.06 µg/mL | 
Oc1cc(NCCCNCc2cc(Cl)cc(Cl)c2)nc2ccccc12 | 1 µg/mL (≈ 2.66 µM) | 0.13 µg/mL (≈ 0.345 µM) | 
CCOc1c(CNCCCNc2cc(O)c3ccccc3n2)cc(Br)cc1OC | 4 µg/mL (≈ 8.69 µM) | 2 µg/mL (≈ 4.34 µM) | 
O=C(NCCCNc1cc(O)c2ccccc2n1)c1ccc(Cl)c(Cl)c1 | > 64 µg/mL | > 64 µg/mL | 
Oc1cc(NCCCSCc2ccc(Cl)c(Cl)c2)nc2ccccc12 | > 64 µg/mL | > 64 µg/mL | 
CCOc1c(C)cc(Br)cc1CNCCCNc1cc(O)c2ccccc2n1 | 0.13 µg/mL (≈ 0.293 µM) | < 0.06 µg/mL | 
Oc1cc(NCCCNCc2ccccc2)nc2ccccc12 | > 64 µg/mL | > 64 µg/mL | 
CCOc1c(CNCCCNc2cc(O)c3ccccc3n2)cc(Br)cc1SC | 0.5 µg/mL (≈ 1.05 µM) | 1 µg/mL (≈ 2.1 µM) | 
Oc1cc(NCCCOCc2ccc(Cl)c(Cl)c2)nc2ccccc12 | > 64 µg/mL | > 64 µg/mL | 
Oc1cc(NCCCNC2COc3c(Cl)cc(Cl)cc32)nc2ccccc12 (centres undefined) | 2 µg/mL (≈ 4.95 µM) | 0.125 µg/mL (≈ 0.309 µM) | 
Cc1cc(Br)c2c(c1)C(NCCCNc1cc(O)c3ccccc3n1)CCN2 (centres undefined) | 1 µg/mL (≈ 2.27 µM) | 0.25 µg/mL (≈ 0.566 µM) | 
CCOC(=O)c1cc(I)c(OCC)c(CNCCCNc2cc(O)c3ccccc3n2)c1 | 32 µg/mL (≈ 58.2 µM) | 8 µg/mL (≈ 14.6 µM) | 
CCOc1c(CNCCCNc2cc(=O)c3ccccc3[nH]2)cc(I)cc1C(C)(C)C | 32 µg/mL (≈ 60 µM) | 8 µg/mL (≈ 15 µM) | 
CCc1cc(I)c2c(c1)C(NCCCNc1cc(=O)c3ccccc3[nH]1)CCN2 (centres undefined) | 0.25 µg/mL (≈ 0.498 µM) | < 0.06 µg/mL | MIC90 [4]: 1 µg/mL (≈ 1.99 µM); MIC90 [5]: 1 µg/mL (≈ 1.99 µM); MIC90 [6]: 0.06 µg/mL (≈ 0.119 µM); MIC90 [7]: 0.25 µg/mL (≈ 0.498 µM)
CCOc1c(I)cc(I)cc1CNCCCNc1cc(O)c2ccccc2n1 | < 0.06 µg/mL | < 0.06 µg/mL | 
CCOc1c(C)cc(Cl)cc1CNCCCNc1cc(O)c2ccccc2n1 | 0.25 µg/mL (≈ 0.625 µM) | < 0.06 µg/mL | 
